For the test, the target named is T1, human serum albumin (HSA) (Homo sapiens, UniProt P02768).
T1 construct: gene ALB; mature full-length, 585 residues, 66500 Da, single chain
Nature of the test: intrinsic fluorescence quenching, double-log plot. The class given is binding. As to conditions: 20 °C, 0.01 M PBS pH 7.4, 1 μM HSA, 0-18 nM ligand, λex 280 nm. The text has this: intrinsic fluorescence quenching, double-log plot on human serum albumin (HSA)

Each structure is given as a SMILES string.

T1 sequence (P02768 25-609): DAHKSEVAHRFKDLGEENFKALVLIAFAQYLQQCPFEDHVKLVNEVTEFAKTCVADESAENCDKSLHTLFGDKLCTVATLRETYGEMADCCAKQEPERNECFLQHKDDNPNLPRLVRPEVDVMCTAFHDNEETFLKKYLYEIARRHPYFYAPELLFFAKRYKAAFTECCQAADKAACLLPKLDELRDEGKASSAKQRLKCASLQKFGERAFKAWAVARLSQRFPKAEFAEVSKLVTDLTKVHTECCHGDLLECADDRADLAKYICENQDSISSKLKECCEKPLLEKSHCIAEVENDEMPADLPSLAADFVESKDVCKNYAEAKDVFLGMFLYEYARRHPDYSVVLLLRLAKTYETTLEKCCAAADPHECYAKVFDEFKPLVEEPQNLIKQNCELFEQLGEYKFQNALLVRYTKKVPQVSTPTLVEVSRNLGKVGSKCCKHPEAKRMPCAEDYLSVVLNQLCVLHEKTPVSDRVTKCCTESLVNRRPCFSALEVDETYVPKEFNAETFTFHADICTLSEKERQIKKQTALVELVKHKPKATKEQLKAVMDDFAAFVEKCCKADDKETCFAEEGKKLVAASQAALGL

For `C[C@@]12C[C@@]3(O)O[C@@H](O1)[C@]1(COC(=O)c4ccccc4)[C@H]3C[C@@]12O[C@@H]1O[C@H](CO)[C@@H](O)[C@H](O)[C@H]1O` [paeoniflorin], the “Ka (mol.L^-1) ± SD” value was 7.39 × 10^4 ± 0.174 mol·L^-1.

These data come from PMC6017552, “Interaction between Saikosaponin D, Paeoniflorin, and Human Serum Albumin” (Molecules : A Journal of Synthetic Chemistry and Natural …, 2018).
